From US9630957B2, “2,3-butanediamide epoxide compound and preparation method and use thereof” (Institute of Pharmacology and Toxicology Academy of …, priority 2014, dated 2017)
Converted amounts (≈) assume the structure as drawn.

Assays:
Vero cells = test: Cytotoxicity of the compounds for Vero cells (CPE observation, TC50); assay type: cell-based; conditions: no virus
Description: (§1) 2. Sample treatment: the compounds of the present invention are dissolved in DMSO or diluent to prepare stock solution which is stored at −20° C. The stock solution is formulated to suitable incipient concentration with culture solution immediately before use, and then 3-fold diluted with the culture solution, 8 degrees of dilution each.
(§2) 4. Test Method: Vero cells are seeded into a 96-well culture plate, at 5% CO2, and cultured at 37° C. for 16 hours. The Vero cells are added with different dilutions of drugs, and the degree of cytopathic effect (CPE) in each group is observed. The half toxic concentration (TC50) of each sample for Vero cells is calculated. Vero cells are added with 100TCID50 enterovirus EV71 respectively, and the virus solution is discarded after adsorption at 37° C. for 1 hour, and then drugs with various degrees of dilution are added respectively. Virus control and cell control are set and incubated at 37° C. The degree of cytopathic effect (CPE) in each group is observed when the degree of cytopathic effect (CPE) of virus control group reaches 4+. The half inhibitory concentration (IC50) of each sample for enterovirus EV71 are calculated. Selectivity Index (SI) is calculated according to the following equation: SI=TC50/IC50.

[1] = system: enterovirus EV71 (BrCr strain); test: Activity screening for anti-enterovirus EV71: inhibition of cytopathic effect in Vero cells; assay type: cell-based; conditions: for IC50: 100TCID50, Vero cells, CPE read when virus control reaches 4+, read-out: IC50 (half inhibitory concentration for enterovirus EV71); for SI (Selectivity Index = TC50/IC50): Vero cells
Description: Test item: Activity screening of the compounds for anti-enterovirus EV71
Test principle: Vero cells are used as viral host. The inhibition of the compound of the invention on the degree of cytopathic effect of Vero cells caused by enterovirus virus EV71 is determined.
1. Virus strain: enterovirus EV71 (BrCr, American Type Culture Collection, ATCC)
as §1
3. Positive control drug: Pirodavir (LGM Pharma), which is a broad-spectrum anti-viral inhibitor.
as §2

| SMILES | melting point [°C] | TC50 (half toxic concentration for Vero cells) (Vero cells) [µg/mL] | IC50 [1] [µg/mL] | SI (Selectivity Index = TC50/IC50) [1] |
| --- | --- | --- | --- | --- |
| COc1ccc(NC(=O)[C@H]2O[C@@H]2C(=O)N(Cc2ccccc2)c2ccccc2)cc1OC [Compound 1, (2S,3S)—N^2-benzyl-N^2-phenyl-N^3-(3,4-dimethoxyphenyl)-2,3-epoxybutanediamide] | 156.5 to 157.2 | 10.68 | > 2.47 | – |
| O=C(Nc1nccs1)[C@H]1O[C@@H]1C(=O)N(Cc1ccccc1)c1ccccc1 [Compound 2, (2S,3S)—N^2-benzyl-N^2-phenyl-N^3-(2-thiazolyl)-2,3-epoxybutanediamide] | 146.6 to 147.4 | 10.68 | 2.47 (≈ 6.51 µM) | 4.32 |
| O=C(Nc1ccc(Cl)c(Cl)c1)[C@H]1O[C@@H]1C(=O)N(Cc1ccccc1)c1ccccc1 [Compound 3, (2S,3S)—N^2-benzyl-N^2-phenyl-N^3-(3,4-dichlorophenyl)-2,3-epoxybutanediamide] | 174.5 to 175.7 | 5.14 | 2.47 (≈ 5.6 µM) | 2.08 |
| O=C(Nc1cccc(F)c1)[C@H]1O[C@@H]1C(=O)N(Cc1ccccc1)c1ccccc1 [Compound 4, (2S,3S)—N^2-benzyl-N^2-phenyl-N^3-(3-fluorophenyl)-2,3-epoxybutanediamide] | 180.5 to 182 | 7.41 | 2.47 (≈ 6.33 µM) | 3.00 |
| O=C(Nc1ccc(F)cc1)[C@H]1O[C@@H]1C(=O)N(Cc1ccccc1)c1ccccc1 [Compound 5, (2S,3S)—N^2-benzyl-N^2-phenyl-N^3-(4-fluorophenyl)-2,3-epoxybutanediamide] | 153.8 to 154.7 | 10.68 | 2.47 (≈ 6.33 µM) | 4.32 |
| O=C(Nc1ccccc1F)[C@H]1O[C@@H]1C(=O)N(Cc1ccccc1)c1ccccc1 [Compound 6, (2S,3S)—N^2-benzyl-N^2-phenyl-N^3-(2-fluorophenyl)-2,3-epoxybutanediamide] | 139.2 to 140.3 | 4.28 | 0.82 (≈ 2.1 µM) | 5.22 |
| COc1cccc(NC(=O)[C@H]2O[C@@H]2C(=O)N(Cc2ccccc2)c2ccccc2)c1 [Compound 7, (2S,3S)—N^2-benzyl-N^2-phenyl-N^3-(3-methoxyphenyl)-2,3-epoxybutanediamide] | 130.7 to 131.7 | 4.28 | 0.27 (≈ 0.671 µM) | 15.85 |
| O=C(Nc1cccc(Cl)c1)[C@H]1O[C@@H]1C(=O)N(Cc1ccccc1)c1ccccc1 [Compound 8, (2S,3S)—N^2-benzyl-N^2-phenyl-N^3-(3-chlorophenyl)-2,3-epoxybutanediamide] | 179.2 to 179.6 | 4.28 | 0.27 (≈ 0.664 µM) | 15.85 |
| O=C(Nc1ccc([N+](=O)[O-])cc1)[C@H]1O[C@@H]1C(=O)N(Cc1ccccc1)c1ccccc1 [Compound 9, (2S,3S)—N^2-benzyl-N^2-phenyl-N^3-(4-nitrophenyl)-2,3-epoxybutanediamide] | 160.2 to 161.3 | 4.28 | 0.82 (≈ 1.96 µM) | 5.22 |
| O=C(Nc1cccc(Cl)c1Cl)[C@H]1O[C@@H]1C(=O)N(Cc1ccccc1)c1ccccc1 [Compound 10, (2S,3S)—N^2-benzyl-N^2-phenyl-N^3-(2,3-dichlorophenyl)-2,3-epoxybutanediamide] | 115.7 to 115.8 | 1.43 | 0.15 (≈ 0.34 µM) | 9.53 |
| O=C(Nc1ccccc1Cl)[C@H]1O[C@@H]1C(=O)N(Cc1ccccc1)c1ccccc1 [Compound 11, (2S,3S)—N^2-benzyl-N^2-phenyl-N^3-(2-chlorophenyl)-2,3-epoxybutanediamide] | 117.3 to 118.2 | 1.43 | 0.15 (≈ 0.369 µM) | 9.53 |
| O=C(Nc1ccc(Cl)cc1)[C@H]1O[C@@H]1C(=O)N(Cc1ccccc1)c1ccccc1 [Compound 12, (2S,3S)—N^2-benzyl-N^2-phenyl-N^3-(4-chlorophenyl)-2,3-epoxybutanediamide] | 175.2 to 175.8 | 10.68 | 0.23 (≈ 0.565 µM) | 46.43 |
| Cc1c(Cl)cccc1NC(=O)[C@H]1O[C@@H]1C(=O)N(Cc1ccccc1)c1ccccc1 [Compound 13, (2S,3S)—N^2-benzyl-N^2-phenyl-N^3-(2-methyl-3-chlorophenyl)-2,3-epoxybutanediamide] | 119.4 to 120.2 | 1.19 | > 0.27 | – |
| O=C(Nc1cccc(Br)c1)[C@H]1O[C@@H]1C(=O)N(Cc1ccccc1)c1ccccc1 [Compound 14, (2S,3S)—N^2-benzyl-N^2-phenyl-N^3-(3-bromophenyl)-2,3-epoxybutanediamide] | 177.5 to 178.2 | 12.83 | 1.43 (≈ 3.17 µM) | 8.97 |
| O=C(Nc1ccccc1Br)[C@H]1O[C@@H]1C(=O)N(Cc1ccccc1)c1ccccc1 [Compound 15, (2S,3S)—N^2-benzyl-N^2-phenyl-N^3-(2-bromophenyl)-2,3-epoxybutanediamide] | 113.2 to 114.3 | 1.43 | 0.47 (≈ 1.04 µM) | 3.04 |
| O=C(Nc1nc2ccccc2s1)c1ccc(N(Cc2ccc(F)cc2)C(=O)[C@H]2O[C@@H]2C(=O)O)cc1 [Compound 16, (2S,3S)-3-((4-(benzo[d]thiazol-2-ylcarbamoyl)phenyl)(4-fluorobenzyl)carbamoyl)oxirane-2-carboxylic acid] | 200.6 to 201.3 | 17.25 | > 2.47 | – |
| COc1ccc(NC(=O)[C@H]2O[C@@H]2C(=O)N(Cc2ccc(F)cc2)c2ccc(C(=O)Nc3nc4ccccc4s3)cc2)cc1OC [Compound 17, (2S,3S)—N^2-(4-(benzo[d]thiazol-2-ylcarbamoyl)phenyl)-N^3-(3,4-dimethoxyphenyl)-N^2-(4-fluorobenzyl)-2,3-epoxybutanediamide] | 205.6 to 206.3 | 115.47 | 38.5 (≈ 61.4 µM) | 3.00 |
| O=C(Nc1nc2ccccc2s1)c1ccc(N(Cc2ccc(F)cc2)C(=O)[C@H]2O[C@@H]2C(=O)Nc2cccc(Br)c2)cc1 [Compound 18, (2S,3S)—N^2-(4-(benzo[d]thiazol-2-ylcarbamoyl)phenyl)-N^3-(3-bromophenyl)-N^2-(4-fluorobenzyl)-2,3-epoxybutanediamide] | 206.3 to 207.1 | 1.43 | > 0.82 | – |
| O=C(Nc1nc2ccccc2s1)c1ccc(N(Cc2ccc(F)cc2)C(=O)[C@H]2O[C@@H]2C(=O)Nc2ccc(Cl)cc2)cc1 [Compound 19, (2S,3S)—N^2-(4-(benzo[d]thiazol-2-ylcarbamoyl)phenyl)-N^3-(4-chlorophenyl)-N^2-(4-fluorobenzyl)-2,3-epoxybutanediamide] | 198.7 to 199.5 | 1.43 | > 0.82 | – |
| COc1ccc(NC(=O)[C@H]2O[C@@H]2C(=O)N(Cc2ccc(F)cc2)c2ccc(C(=O)Nc3nc4ccccc4s3)cc2)cc1 [Compound 20, (2S,3S)—N^2-(4-(benzo[d]thiazol-2-ylcarbamoyl)phenyl)-N^3-(4-methoxyphenyl)-N^2-(4-fluorobenzyl)-2,3-epoxybutanediamide] | 200.1 to 201.2 | 13.74 | > 2.47 | – |
| COc1cccc(NC(=O)[C@H]2O[C@@H]2C(=O)N(Cc2ccc(F)cc2)c2ccc(C(=O)Nc3nc4ccccc4s3)cc2)c1 [Compound 21, (2S,3S)—N^2-(4-(benzo[d]thiazol-2-ylcarbamoyl)phenyl)-N^3-(3-methoxyphenyl)-N^2-(4-fluorobenzyl)-2,3-epoxybutanediamide] | 223.1 to 224.1 | 1.19 | > 0.27 | – |
| COC(=O)c1cnc(NC(=O)[C@H]2O[C@@H]2C(=O)N(Cc2ccccc2)c2ccc(C(=O)Nc3nc4ccccc4s3)cc2)s1 [Compound 42, (2S,3S)—N^2-(4-(benzo[d]thiazol-2-ylcarbamoyl)phenyl)-N^2-benzyl-N^3-(5-methoxycarbonylthiazol-2-yl)-2,3-epoxybutanediamide] | – | 4.28 | > 0.82 | – |
| CCOC(=O)c1ccc(OCCC2CCN(c3ccc(C)nn3)CC2)cc1 [Pirodavir, reference compound] | – | 4.81 | 0.13 (≈ 0.352 µM) | 4.81 |
